According to US10814010B2, “FOXC2 inhibitor and methods of use thereof” (The Board of Regents of The University of Texas System, priority 2018, dated 2020):

Experiments:
MCF-7 cells = assay: MTT cell viability assay, MCF-7; format: cell-based; conditions: MCF-7, MTT, very low FOXC2 expression
Method: It was hypothesized that the specific binding of MC-1-F2 can lead to its specific cellular activity against cancer cells with high FOXC2 expression. This hypothesis was tested by evaluating MC-1-F2's cellular activity on cell lines with different FOXC2 expression levels: MCF-7, BT549, and MDA-MB-231. […] However, further studies are still underway. The specificity in cellular activity of MC-1-F2 was further evaluated in the form of a soft-agar colony forming assay to determine if MC-1-F2 was able to inhibit in vitro tumorigenicity of cancer cells in a FOXC2 expression-dependent manner. […] Further testing is underway in various breast cancer cell lines with different FOXC2 expression levels.
Cell viability was assessed by MTT (3-(4,5-Dimethylthiazol-2-yl)-2,5-Diphenyltetrazolium Bromide) assay. 1×10^4 cells were seeded on 48-well cell culture plate, and were incubated for at least 24 hours prior to drug treatment. The MTT reagent (Fisher Scientific) was added to the culture medium 3 hours prior to the end of compound incubation. The reaction took place in the 37° C. incubator with 5% CO2 for 3 hours. Cell culture medium was then removed from the wells. Cells with the insoluble purple formazan were lysed with DMSO for 10 mins at room temperature, 0.5 ml per well. The solution was aliquot to 96-well plate for absorbance reading at 570 nm using a plate reader.

MDA-MB-231 cells = assay: Western blot of FOXC2 target/non-target genes, EMT, CSC and apoptosis markers in MDA-MB-231; format: cell-based; conditions: MDA-MB-231, 20 μM
Method: MC-1-F2's effect on FOXC2-mediated transcription was examined by measuring PDGFR-β expression levels, a downstream effector of FOXC2 (Hollier et al., 2013). […] (FIGS. 16A&B). To validate the specificity of the ligand to FOXC2, Western blot analysis was carried out on the non-target genes of FOXC2, p38 and GSK3P3.
Next, it was examined if FOXC2 inhibition by MC-1-F2 can affect EMT progression. […] It has been shown that inhibition of downstream or upstream targets of other EMT-associated transcription factors such as Snail, Slug and Twist leads to the decreased EMT progression, through the re-expression of E-cadherin (Bachelder et al., 2005; Ren et al., 2013). However, the impact of direct inhibition of EMT-associated transcription factors including FOXC2 on EMT progression has never been explored until now due to the lack of small molecule inhibitors directly targeting these transcription factors.
As EMT is known to bestow on cells CSC-like properties (Hollier et al., 2013), MC-1-F2 should be able to repress CSC characteristics in cells undergoing EMT. In order to examine the effects of MC-1-F2 on CSC properties, a Western blot analysis of MDA-MB-231 cell with and without treatment of MC-1-F2 was carried out, analyzing the CSC markers c-Myc, KLF4, and Nanog. […] In order to further evaluate the effect of MC-1-F2 on CSC properties and EMT progression, β-catenin nuclear localization was examined (FIG. 5D). β-catenin is involved in both EMT progression and acquisition of CSC properties (Kalluri & Weinberg, 2009, Schmalhofer et al., 2009). A repression of E-cadherin has shown to initiate a nuclear localization of β-catenin, leading to an initiation of several EMT signals (Schmalhofer et al., 2009). Moreover, nuclear localization β-catenin is the hallmark of an active Wnt pathway, a major pathway that contributes to CSC properties (Beck & Blanpain, 2013). […] Only nuclear fraction of β-catenin bestows CSC properties on cells.
50 μg of total protein per sample was incubated with 4× loading buffer at 100° C. for 5 min. Protein samples were then loaded into a polyacrylamide gel and subjected to SDS-PAGE. Resolved proteins were then transferred by a wet transfer method to a PVDF membrane at 100 V for 1 hour using a BioRad Mini Trans-Blot Electrophoresis Transfer Cell. Upon the completion of wet transfer, the membrane was then blocked with 5% (w/v) fat-free milk in 1× Tris-buffered saline/0.1% (v/v) Tween-20 (TBS-T) for at least 1 hour. Then incubated with the respective primary antibodies diluted in 5% BSA in 1×TBST at 4° C. overnight. The following day exposed to 1:1000 dilution of anti-mouse or anti-rabbit HRP-conjugated secondary antibodies in 5% (w/v) fat-free milk in 1×TBS-T for 1 hour at room temperature. The probed proteins were then detected for chemiluminescent signal using SuperSignal Chemiluminescent Substrate (PIERCE). Pierce antibodies: B-actin, and all other antibodies used are from cell signaling. MG132 treatment was added to cells (0.5 μM) for 1-hour incubation prior to compound treatment, no more than 24 hours total exceeded during MG132 incubation.

LNCaP cells = assay: Transwell invasion assay, LNCaP; format: cell-based; conditions: androgen-dependent, low FOXC2 expression, 20 μM, 24 hours
Method: Following determination of both inhibition of EMT and CSC properties, the inhibition of the migratory and invasive capabilities of both cell lines following MC-1-F2 treatment was examined through the use of a transwell invasion assay.
Matrigel invasion chambers (Corning) were allowed to come to room temperature and allowed to rehydrate for 2 hours in a cell incubator. Cells were treated 24 hours prior to assay and starved in 2% FBS in DMEM for 2 hours prior to assay. A cell suspension containing 5×10^4 cells/mL was prepared. Chemoattractant (DMEM+10% FBS) was added to the bottom of the wells. Using forceps, the inserts were transferred inside the wells and 0.5 mL of cell suspension was immediately added. The chambers were incubated for 22 hours in a humidified tissue culture incubator. After the 22 hours, the non-invading cells were removed by scrubbing the surface of the membrane. The cells were fixated with 4% formaldehyde solution for 2 minutes at room temperature. Followed by permeabilization of the membrane with 100% MeOH for 20 minutes at room temperature. The cells were stained with 0.5% crystal violet solution and several images of the wells were then taken and total number of cells counted for analysis.

DU145 cells = assay: Co-treatment MTT assay, DU145; conditions: constant ratio
[1] = 48 hours, non-target gene of FOXC2

Structure (SMILES): N=C(N)NCCCCNc1nc(Nc2ccc(Oc3ccccc3)cc2)nc(N2CCN(c3nc(N)nc(Nc4ccc(N5CCOCC5)cc4)n3)CC2)n1 [MC-1-F2]
- inhibition of cell viability (MCF-7 cells): little inhibition of cell viability
- PDGFR-β expression levels (MDA-MB-231 cells; 24 or 48 hours): decrease in PDGFR-β expression levels
- E-cadherin expression (MDA-MB-231 cells; 48 hours): increase E-cadherin expression
- KLF4 expression (CSC marker) (MDA-MB-231 cells; 48 hours): decrease
- MMP2 expression (MDA-MB-231 cells; 48 hours): downregulated the expression
- N-cadherin expression (MDA-MB-231 cells; 48 hours): downregulation of N-cadherin
- Nanog expression (CSC marker) (MDA-MB-231 cells; 48 hours): no statistical difference
- Slug expression (MDA-MB-231 cells; 48 hours): decrease in other mesenchymal markers
- Snail protein level (MDA-MB-231 cells; 48 hours): did not affect the protein level
- Vimentin expression (MDA-MB-231 cells; 48 hours): decrease in other mesenchymal markers
- ZEB1 expression (MDA-MB-231 cells; 48 hours): downregulate ZEB1
- c-Myc expression (CSC marker) (MDA-MB-231 cells; 48 hours): decrease
- cytosolic fraction of β-catenin (MDA-MB-231 cells; 48 hours): increase in the cytosolic fractions
- induction of apoptosis (Western blot of Bad, phospho-Bad, Bak, Bax) (MDA-MB-231 cells; 48 hours): induction of an apoptosis
- nuclear fraction of β-catenin (MDA-MB-231 cells; 48 hours): decrease in the nuclear fraction
- GSK3β expression levels (MDA-MB-231 cells; [1]): no effect on the expression levels
- p38 expression levels (MDA-MB-231 cells; [1]): no effect on the expression levels
- number of invasive cells (transwell invasion) (LNCaP cells): saw to change in the number of invasive cells
- combination index with docetaxel (CompuSyn) (DU145 cells): negative combination index
- combination effect with docetaxel (DU145 cells; 24 hours): synergistic effects
- combination effect with enzalutamide (CompuSyn) (DU145 cells; 24 hours): only additive effects
